From the NIST ThermoML archive (doi:10.1016/j.jct.2019.04.005)
Numbers after ± are expanded uncertainties.

Legend:
[1] = 298.2 K; 101.33 kPa; Liquid; Vibrating tube method
[2] = refractive index (Na D-line) (dimensionless); conditions: 298.2 K; 101.33 kPa; Liquid; Standard Abbe refractometry
[3] = refractive index (Na D-line) (dimensionless); wn = mass fraction of the nth substance listed; conditions: 298.2 K; 100 kPa; Liquid; Standard Abbe refractometry; w1 = 0.85
[4] = wn = mass fraction of the nth substance listed; conditions: 298.2 K; 100 kPa; Liquid; Vibrating tube method; w1 = 0.85

Row | mass density [1] [kg/m3] | refractive index [2] | refractive index [3] | mass density [4] [kg/m3] | SMILES
1 | 803.77 ± 2.1 | 1.4101 ± 0.003 |  |  | CC(C)CC(C)O (configuration not stated) [4-methyl-2-pentanol]
2 | 805.3 ± 2.1 | 1.4049 ± 0.003 |  |  | CCCC(C)O (configuration not stated) [pentan-2-ol]
3 |  |  | 1.432 ± 0.003 | 1682.7 ± 2.2 | O=P(O)(O)O [phosphoric acid] + O
4 |  | 1.3325 ± 0.003 |  |  | O [water]
